Test results published in PMC9405973, “Altered Conformational Landscape upon Sensing Guanine Nucleotides in a Disease Mutant of Elongation Factor-like 1 (EFL1) GTPase” (Biomolecules, 2022).

How the values were obtained:
[1] = molecular target: T1, Efl1 R1086Q (Saccharomyces cerevisiae, UniProt P53893, R1086Q); assay: Isothermal titration calorimetry (ITC): binding of guanine nucleotides or Sdo1 to Efl1 R1086Q; conditions: for Nconfres (number of residues changing conformation, absolute value) / ΔCpb: +Mg^2+; for Nconfres (number of residues changing conformation, absolute value): 30 °C; for ΔCpb: guanine nucleotide, from ΔHb at 25–35 °C
T1 construct: made in house; host or cells: Saccharomyces cerevisiae
Experimental: (§1) All calorimetric measurements were carried out using MicroCal^TM iTC200 System (GE Healthcare, Northampton, MA, USA) in a temperature range of 25–35 °C. Experiments were performed in a buffer consisting of 50 mM Tris-HCl (pH 8.0), 150 mM NaCl, 100 µM DTT, and 5% glycerol. In the titrations with Mg^2+-bound nucleotides, both the ligand and protein solutions contained 5 mM MgCl2. In the case of titrations with Mg^2+-free nucleotide, both the ligand and protein solutions were supplemented with 2 mM EDTA to sequester any residual trace of metal ions in solution. Protein samples and ligands were prepared in the exact same buffer prior to each titration. Protein concentration in the cell comprised 30–50 µM GTPase, while the ligand concentration in the syringe was 2–3 mM for GTP, MgGTP, GDP, and MgGDP. To ensure measuring the interaction of the complex Efl1 R1086Q•Sdo1 with the nucleotide, an eight-fold concentration excess of Sdo1 was used compared with that of the enzyme. […] The titration schedule consisted of 15–20 consecutive injections of the ligand with 5 min intervals between injections and a stirring rate of 700 rpm. The dilution heat of the ligand was obtained by adding the ligand to a buffer solution under identical conditions and with the same injection schedule used for the protein sample. All samples were degassed for 10 min prior to the experiment.
(§2) The binding isotherms obtained for the isolated GTPase in the presence of Mg(II) were analysed using a ternary model in which the protein can bind to the free nucleotide (G(D)TP) or that bound to one magnesium ion (MgG(D)TP); additionally, GTP may also exist in the form of Mg2GTP, which is not recognised by the protein. The derivation of this coupled-equilibria model can be reviewed in [6, 31]. The binding constant (Kb), the enthalpy change (∆Hb), and the stoichiometry (n) were obtained with the non-linear routines implemented in Origin 5.0 (OriginLab, Co., Northampton, MA, USA) using a one-binding-site model as described in [32, 33]. The heterotropic cooperativity for the binding of guanine nucleotides and Sdo1 to Efl1 R1086Q were calculated as previously described in [6, 32]. The cooperative effects of Mg(II) on the binding of guanine nucleotides to Efl1 R1086Q alone and bound to Sdo1 were calculated as follows:κ = KE-MG/KE-G κ = KES-MG/KES-G Δh = ΔHE-MG − ΔHE-G Δh = ΔHES-MG − ΔHES-G where subscripts E-MG and E-G stand for the association of the metal-bound and metal-free guanine nucleotide with mutant Efl1, respectively. Corresponding expressions applied to the heterotropic cooperativity of the binding of nucleotides to the preformed complex, Efl1•Sdo1 (ES).
(§3) The impact of Sdo1 on the binding of Efl1 R1086Q to guanine nucleotides in the presence of magnesium ions is contained in KES-MG and ΔHES-MG relative to the KE-S and ΔHE-S values; analogous ratios report the effects in the absence of Mg(II):κ = KES-MG/KE-S κ = KES-G/KE-G Δh = ΔHES-MG − ΔHE-S Δh = ΔHES-G − ΔHE-G
(§4) The corresponding cooperative entropy change was calculated as:TΔs = Δh − Δg = Δh + RTlnκ
(§5) The detailed methodology and equations to compute the changes in the accessible surface area (∆ASA) of the GTPase upon binding to nucleotides and the ∆S energetic-based parameters are reported in [6]. Briefly, the water-accessible areas (ASAs) were computed using programme NACCESS, while the changes in accessible surface area (ΔASA) upon the formation of each GTPase–nucleotide complex were estimated considering the difference between the complex and the sum of the free interacting partners. The calculated polar (ΔASAp) and apolar (ΔASAap) area changes were subsequently used to estimate the free molecular partners. […]

[2] = molecular target: T2, Efl1 R1086Q•Sdo1 (Saccharomyces cerevisiae, UniProt P53893, R1086Q); assay: ITC: binding of guanine nucleotides to pre-formed complex Efl1 R1086Q•Sdo1
T2 construct: made in house; host or cells: Efl1: Saccharomyces cerevisiae; Sdo1: Escherichia coli C41
Experimental: as §1, §2, §3, §4, §5

[3] = molecular target: T3, Efl1 R1086Q P151L (Saccharomyces cerevisiae, UniProt P53893, P151L/R1086Q); assay: ITC: binding of GTP to double mutant Efl1 R1086Q P151L; conditions: +Mg^2+, from ΔHb at 25–35 °C
T3 construct: made in house; host or cells: Saccharomyces cerevisiae

[4] = tested on: wild-type Efl1; conditions: guanine nucleotide, +Mg^2+; cited from earlier work
[5] = Enzyme kinetics of GTP hydrolysis (PNP coupled assay, Michaelis–Menten); assay type: biochemical, Saccharomyces cerevisiae; conditions: enzyme in complex with Sdo1 (25 µM Sdo1)
Experimental: Finally, we measured the enzyme kinetics of mutant Efl1 R1086Q as an isolated enzyme and bound to Sdo1 using an enzymatic coupled assay with a purine nucleoside phosphorylase (PNP) enzyme. This analysis was extended to another disease mutation (EFL1 M882K) also located in domain IV of the GTPase using the equivalent yeast variant, Efl1 L910K [17]. The Km and kcat kinetic parameters were calculated using non-linear regression assuming a Michaelis–Menten model (Supplementary Table S1). […] The catalytic constant for mutant R1086Q and the wild-type enzyme consisted of 0.67 min^−1, and it was 0.58 min^−1 for mutant Efl1 L910K. […] In line with the proposed role of Sdo1 as a guanine exchange factor of Efl1, previous results have shown that the interaction of wild-type Efl1 with Sdo1 impacted its Km for GTP, decreasing its value 2–3-fold. The Km values for the complexes formed between Sdo1 and Efl1 mutants decreased by half with respect to their cognate-free counterpart and differed from each other. […] The measured Km value comprises all the microscopic rate constants of the individual reactions occurring in the enzyme, which include the binding to the substrate and product and the corresponding conformational changes.
Hydrolysis of GTP was measured using the Enzchek Phosphate Assay kit (Molecular Probes) as described by Webb. Standard reactions consisted of 100 µL containing 6 µM of Efl1 R1086Q and Efl1 L910K, 0.3 mM MESG, 1.0 U purine nucleoside phosphorylase (PNP) and the indicated amounts of GTP. Measurements done in the presence of effector protein contained 25 µM of Sdo1.
The reaction buffer consisted of 50 mM HEPES -KOH pH 7.5, 150 mM NaCl, 5 mM MgCl2.
Reactions were initiated and the GTPase was added after 3 min. Time courses were followed by recording the change in absorbance at 360 nm in a Cary 60 UV -Vis spectrophotometer (Agilent Technologies). Background absorbance was recorded prior to the addition of the GTPase and subtracted from the sample signals. The slope of the measured time courses corresponded to the GTP hydrolysis rate. The concentration of releas ed phosphate was estimated using a molar absorption coefficient at 360 nm of 14,386 M -1 cm-1 previously described in [2]. Data were analysed by nonlinear regression to the M ichaelis-Menten equation with the program Origin Version 5.0 (OriginLab, Co., Northampton, MA). […]
M HEPES-KOH pH 7.4, 2.5 mM magnesium acetate, 50 mM sucrose, 2 mM DTT, 0.1 mM PMSF, 0.1 mM benzamidine, 8 mM putrescine, 1 mM spermidine. […]
Dilution at the end of each titration was no longer than 2.5% of the initial volume. Data were corrected for the background signal by subtracting the fluorescence of the same ligand concentration without the GTPase in the reaction mixture.
Maximum emission at 440 nm was replotted as a function of nucleotide concentration and analysed

T3 sequence (P53893 whole entry P151L/R1086Q): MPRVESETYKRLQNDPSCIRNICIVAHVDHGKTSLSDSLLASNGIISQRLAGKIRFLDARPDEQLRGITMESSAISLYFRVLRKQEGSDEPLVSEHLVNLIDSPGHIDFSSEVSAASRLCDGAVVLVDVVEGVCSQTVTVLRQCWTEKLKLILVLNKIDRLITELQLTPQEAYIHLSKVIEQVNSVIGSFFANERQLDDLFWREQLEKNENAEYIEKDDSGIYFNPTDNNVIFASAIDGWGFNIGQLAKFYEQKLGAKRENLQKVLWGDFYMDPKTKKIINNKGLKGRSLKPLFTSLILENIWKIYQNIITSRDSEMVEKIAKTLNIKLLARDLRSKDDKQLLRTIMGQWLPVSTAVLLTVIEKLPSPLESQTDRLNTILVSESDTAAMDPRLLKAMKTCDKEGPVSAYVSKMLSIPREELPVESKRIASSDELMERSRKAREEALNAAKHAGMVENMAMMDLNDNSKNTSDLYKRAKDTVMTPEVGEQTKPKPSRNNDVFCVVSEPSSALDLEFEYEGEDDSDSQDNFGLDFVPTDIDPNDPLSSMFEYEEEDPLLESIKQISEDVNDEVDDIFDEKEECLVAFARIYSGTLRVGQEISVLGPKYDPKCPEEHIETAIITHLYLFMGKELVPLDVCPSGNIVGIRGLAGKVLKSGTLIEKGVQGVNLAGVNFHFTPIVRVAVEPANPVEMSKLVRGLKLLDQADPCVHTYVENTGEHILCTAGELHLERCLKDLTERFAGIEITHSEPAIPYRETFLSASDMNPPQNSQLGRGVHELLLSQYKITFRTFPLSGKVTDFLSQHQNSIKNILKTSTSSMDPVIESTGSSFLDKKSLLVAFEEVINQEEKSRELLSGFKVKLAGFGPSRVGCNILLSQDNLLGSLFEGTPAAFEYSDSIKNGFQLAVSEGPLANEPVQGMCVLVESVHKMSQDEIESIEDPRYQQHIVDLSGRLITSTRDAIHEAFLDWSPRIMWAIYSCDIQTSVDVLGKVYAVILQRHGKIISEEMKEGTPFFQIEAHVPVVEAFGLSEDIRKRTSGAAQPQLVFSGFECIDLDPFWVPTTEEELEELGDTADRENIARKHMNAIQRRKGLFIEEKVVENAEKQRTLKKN

Molecule: MgGDP
- increase in binding enthalpy as temperature increased ([1]; 25 °C to 35 °C): ~ 3 kcal mol^−1
- Nconfres (number of residues changing conformation, absolute value) [1]: 21
- ΔCpb [1]: −270 cal mol^−1 K^−1
- surface buried by the conformational change ([1]; refers to Table 3, 30 °C): ~ 1000 Å
- ΔΔCpb (Efl1 R1086Q•Sdo1 vs isolated enzyme) ([2]; presence of magnesium ions): −45 cal mol^−1 K^−1

Molecule: MgGTP
- ΔCpb [3]: −220 cal mol^−1 K^−1
- ΔCpb [4]: −560 cal mol^−1 K^−1
- fold increase in affinity from 25 °C to 35 °C ([1]; 35 °C vs 25 °C): 1.2 fold
- Nconfres (number of residues changing conformation, absolute value) [1]: 3
- ΔCpb [1]: 10 cal mol^−1 K^−1
- Nconfres (number of residues changing conformation, absolute value) ([2]; +Mg^2+, 30 °C): 36
- ΔCpb ([2]; +Mg^2+, from ΔHb at 25–35 °C): −400 cal mol^−1 K^−1
- additional residues modified with respect to the isolated enzyme ([2]; presence of magnesium ions): 40
- ΔΔCpb (Efl1 R1086Q•Sdo1 vs isolated enzyme) ([2]; presence of magnesium ions): −410 cal mol^−1 K^−1

B1: Efl1 R1086Q • Sdo1: binary complex of mutant GTPase Efl1 R1086Q and effector Sdo1 (protein, UniProt P53893 1-1110; Q07953 1-250, looked up, variant R1086Q)
Ribosome assembly protein 1: MPRVESETYKRLQNDPSCIRNICIVAHVDHGKTSLSDSLLASNGIISQRLAGKIRFLDARPDEQLRGITMESSAISLYFRVLRKQEGSDEPLVSEHLVNLIDSPGHIDFSSEVSAASRLCDGAVVLVDVVEGVCSQTVTVLRQCWTEKLKPILVLNKIDRLITELQLTPQEAYIHLSKVIEQVNSVIGSFFANERQLDDLFWREQLEKNENAEYIEKDDSGIYFNPTDNNVIFASAIDGWGFNIGQLAKFYEQKLGAKRENLQKVLWGDFYMDPKTKKIINNKGLKGRSLKPLFTSLILENIWKIYQNIITSRDSEMVEKIAKTLNIKLLARDLRSKDDKQLLRTIMGQWLPVSTAVLLTVIEKLPSPLESQTDRLNTILVSESDTAAMDPRLLKAMKTCDKEGPVSAYVSKMLSIPREELPVESKRIASSDELMERSRKAREEALNAAKHAGMVENMAMMDLNDNSKNTSDLYKRAKDTVMTPEVGEQTKPKPSRNNDVFCVVSEPSSALDLEFEYEGEDDSDSQDNFGLDFVPTDIDPNDPLSSMFEYEEEDPLLESIKQISEDVNDEVDDIFDEKEECLVAFARIYSGTLRVGQEISVLGPKYDPKCPEEHIETAIITHLYLFMGKELVPLDVCPSGNIVGIRGLAGKVLKSGTLIEKGVQGVNLAGVNFHFTPIVRVAVEPANPVEMSKLVRGLKLLDQADPCVHTYVENTGEHILCTAGELHLERCLKDLTERFAGIEITHSEPAIPYRETFLSASDMNPPQNSQLGRGVHELLLSQYKITFRTFPLSGKVTDFLSQHQNSIKNILKTSTSSMDPVIESTGSSFLDKKSLLVAFEEVINQEEKSRELLSGFKVKLAGFGPSRVGCNILLSQDNLLGSLFEGTPAAFEYSDSIKNGFQLAVSEGPLANEPVQGMCVLVESVHKMSQDEIESIEDPRYQQHIVDLSGRLITSTRDAIHEAFLDWSPRIMWAIYSCDIQTSVDVLGKVYAVILQRHGKIISEEMKEGTPFFQIEAHVPVVEAFGLSEDIRKRTSGAAQPQLVFSGFECIDLDPFWVPTTEEELEELGDTADRENIARKHMNAIQRRKGLFIEEKVVENAEKQRTLKKN
Ribosome maturation protein …: MPINQPSGQIKLTNVSLVRLKKARKRFEVACYQNKVQDYRKGIEKDLDEVLQIHQVFMNVSKGLVANKEDLQKCFGTTNVDDVIEEIMHKGEIQLSEKERQLMLNKVNNEMLTIVSAKCINPVSKKRYPPTMIHKALQELKFSPVINKPAKLQALEAIKLLVSKQIIPIVRAKMKVKVAISEPSRQPELIEKISKLIASSPGESTKPELDPWTCTGLIDPVNYRDLMTLCDKKGTVQVLDMAVIDNTTHN
modifications: binary complex
- kcat [5]: 0.0112 s⁻¹
